How the values were obtained:
[1] = test system: rat fetal primary hepatocytes; test: Treatment of rat fetal primary hepatocytes: mRNA and protein expression; format: cell-based; conditions: DEX 20-500 x 10^-9 M or CORT 300-1200 x 10^-9 M, concentration-dependent
Method: (§1) Cells and liver samples were subjected to RNA isolation using a TRIZOL reagent. Process of RNA extraction and cDNA preparation was according to our prior work.^[ [103] ^] qPCR was performed using the Cham Q TM Universal SYBR® qPCR Master Mix on the QuantStudio®5 Real‐Time PCR System (Thermo Scientific, Waltham, MA, USA) for detection. All primers are listed in Table S2 (Supporting Information). Target gene expression was standardized using housekeeping gene and computed using the 2^−ΔΔCt methodology. For the gene expression levels assayed in each tissue of fetal mice, n indicates a litter (with each n ranging from 11‐12).
(§2) Total protein was extracted from the liver and cells using RIPA lysis buffer, and protein concentration was determined using a bicinchoninic acid (BCA) assay. Nuclear proteins were extracted using the Nuclear Protein Extraction Kit (no. P0028, Beyotime Institute of Biotechnology, Shanghai, China).^[ [104] ^] To verify the purity of extracted cellular fractions, we examined the levels of cytoplasmic localization proteins (ACTB and GAPDH) and nuclear localization protein (H3) in cytoplasmic and nuclear samples, respectively. […] Details of the western blot procedure have been described previously.^[ [105] ^] […] Results were quantified using Image J Launcher.

[2] = test system: bone marrow mesenchymal stem cells hepatoid differentiated cell (BHDC); test: Treatment of BHDC: mRNA, protein, ChIP-PCR and CoIP readouts; format: cell-based, rat; conditions: for interaction between GR and P300/CBP (co-immunoprecipitation): 500 x 10^-9 M DEX or 1200 x 10^-9 M CORT; for gene and protein expression of P300/CBP, binding of GR-P300/CBP to CAR promoter, acetylation levels of H3K9 and H3K27: dose-dependent
Method: Protocols for preparing BMSCs and the hepatoid‐differentiated cells (BHDCs) were based on our prior study.^[ [98] ^] BMSCs were harvested from PW3 male rats and cultured at a density of 4 × 10^5 cells per well in six‐well plates with growth medium (αMEM with 10% fetal bovine serum (FBS), […] streptomycin, and 100 U mL^−1 penicillin).
All primers are listed in Table S2 (Supporting Information).
Results were quantified using Image J Launcher.
Cells were cross‐linked with 1% formaldehyde at room temperature, and glycine (final concentration 125 × 10^−3 M) was added to terminate the reaction.^[ [105] ^] The suspensions were sonicated to obtain 200‐800 bp DNA fragments, and then were incubated with Agarose‐protein A/G beads and divided into multiple portions. Corresponding antibodies (H3K9ac, H3K14ac, H3K27ac, H3K4me2, H3K27me3, GR, and CAR) and IgG were added and shaken overnight at 4 °C for immunoprecipitation, followed by the addition of 200 µg mL^−1 proteinase K at 65 °C overnight. DNA was isolated from each immunoprecipitation and subjected to RT‐qPCR analysis. The Jaspar database was consulted to query gene transcription binding sites.^[ [107] ^] Primers for amplification of multiple regions of the CAR promoter were designed using the UCSC Genome Browser (http://genome.ucsc.edu/) and Primer 3 Input Browser (http://primer3.ut.ee/). The primer sequences are listed in Table S4 (Supporting Information). Data from RT‐qPCR were used to calculate the abundance of proteins enriched in the promoters of each gene using the following formula: IP/input = 100 × 2^Ct input DNA – Ct IP DNA.
Tissue and cell lysates were collected, and protein concentrations were quantified using a BCA protein quantification kit. Protein A agarose gel beads (20 to 40 µL) were washed 2 to 3 times with lysis buffer and centrifuged at 3000 rpm for 5 min each time. Between 500 and 1000 µL of homogenized lysis supernatant from tissues or cells were transferred to a clean EP tube, and 1–10 µL of specific primary antibody was added to incubate overnight at 4 °C. IgG from the same species served as a negative control. Subsequently, 20 µL of A/G agarose gel beads were added, and the mixture was incubated for 3‐4 h at 4 °C. After incubation, the sample was centrifuged at 1000 g for 5 min at 4 °C to collect the immunoprecipitated complexes; the mixture was then washed 3‐4 times with 1 mL ice‐cold IP lysate (without protease inhibitor) by centrifugation at 3000 g for 5 min. Following the final wash, 40 µL of 1 × SDS loading buffer containing mercaptoethanol was added, boiled for 10 min at 100 °C, centrifuged at 1000 g for 5 min at 4 °C, and 15–20 µL of supernatant was used for WB assay.

[3] = test system: GR; test: Dual-luciferase assay of transcriptional function of GR on CAR; format: cell-based, human; conditions: with DEX treatment
Method: The dual‐luciferase reporter plasmid of pTol2‐cmv‐Fluc‐bGH polyA‐EF1α‐Rluc‐polyA was synthesized by Tsingke company and worked as a positive control. Overlapping PCR was performed to generate insert of the target gene promoter base on HepG2 genomic DNA template. Employing Hifi assembly kit, promoter fragments were inserted into SpeI/NtoI site of reporter vector, and coding sequences were inserted into XbaI/XhoI site of pTol2‐EGFP‐polyA plasmid. 48 h after transfection, cells were collected for dual‐luciferase assay according to Promega luciferase kit instructions. The primers for overlap PCR are listed in Table S5 (Supporting Information).

[4] = test system: LS174T; test: Treatment of LS174T with hydrocortisone; format: cell-based, human
Method: as §1
as §2, with “Launcher. […]” for “Launcher.”

[5] = test system: HepG2; test: Treatment of HepG2 with hydrocortisone; format: cell-based, human
Method: as §1
as §2, with “Launcher. […]” for “Launcher.”

[6] = DEX 20-500 x 10^-9 M or CORT 300-1200 x 10^-9 M
[7] = 500 x 10^-9 M DEX with 10 x 10^-6 M RU486 or 100 x 10^-9 M GR siRNA
[8] = 0, 300, 600, 1200 nM, concentration-dependent

C[C@]12C[C@H](O)[C@H]3[C@@H](CCC4=CC(=O)CC[C@@]43C)[C@@H]1CC[C@@H]2C(=O)CO [CORT, corticosterone]
CYP3A and CYP2B expression, gene and protein levels [1]: significantly induced CYP3A and CYP2B expression at both the gene and protein levels | interaction between GR and P300/CBP (co-immunoprecipitation) [2]: significantly enhanced | CYP3A and CYP2B expression, gene and protein levels ([2]; DEX 20-500 x 10^-9 M or CORT 300-1200 x 10^-9 M, 24 h, concentration-dependent): significantly induced CYP3A and CYP2B expression at both the gene and protein levels | gene and protein expression of P300/CBP, binding of GR-P300/CBP to CAR promoter, acetylation levels of H3K9 and H3K27 [2, 6]: significantly induced

C[C@@H]1C[C@H]2[C@@H]3CCC4=CC(=O)C=C[C@]4(C)[C@@]3(F)[C@@H](O)C[C@]2(C)[C@@]1(O)C(=O)CO [DEX, dexamethasone]
interaction between GR and P300/CBP (co-immunoprecipitation) [2]: significantly enhanced | gene and protein expression of P300/CBP, binding of GR-P300/CBP to CAR promoter, acetylation levels of H3K9 and H3K27 [2, 6]: significantly induced

C=C1[C@@H](O)[C@@H]2O[C@]3(CC[C@H](/C=C/[C@@H](C)[C@@H]4CC(C)=C[C@@]5(O[C@H](C[C@@](C)(O)C(=O)O)CC[C@H]5O)O4)O3)CC[C@H]2O[C@@H]1[C@@H](O)C[C@H](C)[C@H]1O[C@@]2(CCCCO2)CC[C@H]1C [OA, okadaic acid]
effect on DEX-enhanced total and nuclear protein levels of CAR ([2]; 10 x 10^-9 M OA with DEX): reversed | expression of downstream CYP3A and CYP2B ([2]; 10 x 10^-9 M OA with or without DEX): significantly reduced the expression of downstream CYP3A and CYP2B with or without DEX incubation

CC#C[C@]1(O)CC[C@H]2[C@@H]3CCC4=CC(=O)CCC4=C3[C@@H](c3ccc(N(C)C)cc3)C[C@@]21C [RU486, mifepristone]
effect on transcriptional activity of GR (on CAR) induced by DEX [3]: blocked transcriptional activity of GR induced by DEX | effect on GR protein nuclear translocation and CYPs expression induced by DEX ([2]; 10 x 10^-6 M with 500 x 10^-9 M DEX): significantly inhibited protein nuclear translocation of GR and expression of CYPs induced by DEX treatment | effect on CAR induction by DEX [2, 7]: suppressed | effect on DEX induction of P300/CBP expression, P300/CBP binding to CAR promoter and H3K9/H3K27 acetylation [2, 7]: reversed the induction of P300/CBP expression, the binding of P300/CBP to the CAR promoter, and the acetylation levels of H3K9 and H3K27 by DEX

C[C@]12CCC(=O)C=C1CC[C@@H]1[C@@H]2[C@@H](O)C[C@@]2(C)[C@H]1CC[C@]2(O)C(=O)CO [hydrocortisone]
expression of downstream genes [4, 8]: could significantly induce the expression of downstream genes | related indicators and nuclear translocation of GR and CAR ([4]; 1200 x 10^-9 M): significantly increased | expression of downstream genes [5, 8]: could significantly induce the expression of downstream genes | related indicators and nuclear translocation of GR and CAR ([5]; 1200 x 10^-9 M): significantly increased
